Experimental data: patent US20040242665A1, “Hair composition containing a styrylpyrazole compound, and use thereof for stimulating or inducing hair or eyelash growth and/or reducing loss thereof” (SOCIETE L'OREAL S.A., priority 2002, published 2004)

What was measured:
15-PGDH = biological target: T1, 15-PGDH (Homo sapiens, UniProt P15428); assay: Test on 15-PGDH (spectrophotometric, 340 nm, PGE2 and NAD); format: biochemical; conditions: for IC50: pH 7.4 Tris buffer, 37° C., 50 μM prostaglandin E2, read-out: Inhibition of 15-PGDH IC50dh
T1 construct: made in house
T1 sequence (P15428 1-266): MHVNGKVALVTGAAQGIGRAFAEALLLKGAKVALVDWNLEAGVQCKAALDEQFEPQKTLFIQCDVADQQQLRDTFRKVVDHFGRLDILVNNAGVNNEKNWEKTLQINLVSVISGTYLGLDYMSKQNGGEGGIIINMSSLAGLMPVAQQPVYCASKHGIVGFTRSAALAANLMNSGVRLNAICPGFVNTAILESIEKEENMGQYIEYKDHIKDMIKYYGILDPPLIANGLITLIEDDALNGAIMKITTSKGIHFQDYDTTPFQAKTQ
Procedure: The enzyme 15-PGDH is obtained as described in patent application FR 02/05067 filed in the name of L'Oreal, as a suspension in a medium adjusted to a concentration of 0.3 mg/ml and then blocked at −80° C. For the purposes of the test, this suspension is thawed and stored in ice.
In parallel, a 100 mM, pH 7.4 Tris buffer containing 0.1 mM of dithiothreitol (D5545, Sigma-Aldrich, L'isle D'Abeau Chesne, BP 701, 38297, Saint Quentin Fallavier), 1.5 mM of P-NAD (N6522, Sigma-Aldrich, L'isle D'Abeau Chesne, BP 701, 38297, Saint Quentin Fallavier), and 50 μM of prostaglandin E2 (P4172, Sigma-Aldrich, L'isle D'Abeau Chesne, BP 701, 38297, Saint Quentin Fallavier) is prepared.
(§1) 0.965 ml of this buffer (brought to 37° C. beforehand) is introduced into the cuvette of a spectrophotometer (Perkin-Elmer, Lambda 2) thermostatically maintained at 37° C., the measuring wavelength of which is set at 340 nm. 0.035 ml of enzymatic suspension at 37° C. is introduced into the cuvette concomitantly with the recording (corresponding to an increase in the optical density at 340 nm). The maximum reaction rate is recorded.

PGF synthase = biological target: T2, PGF synthase (Homo sapiens, UniProt P42330); assay: Test on PGF synthase (spectrophotometric, 340 nm, 9,10-phenanthrenequinone and NADPH); format: biochemical; conditions: pH 6.5 Tris buffer, 37° C., 20 μM 9,10-phenanthrenequinone, 100 μM β-NADPH; read-out: Inhibition of PGF synthase IC50fs
T2 construct: made in house
T2 sequence (P42330 1-323): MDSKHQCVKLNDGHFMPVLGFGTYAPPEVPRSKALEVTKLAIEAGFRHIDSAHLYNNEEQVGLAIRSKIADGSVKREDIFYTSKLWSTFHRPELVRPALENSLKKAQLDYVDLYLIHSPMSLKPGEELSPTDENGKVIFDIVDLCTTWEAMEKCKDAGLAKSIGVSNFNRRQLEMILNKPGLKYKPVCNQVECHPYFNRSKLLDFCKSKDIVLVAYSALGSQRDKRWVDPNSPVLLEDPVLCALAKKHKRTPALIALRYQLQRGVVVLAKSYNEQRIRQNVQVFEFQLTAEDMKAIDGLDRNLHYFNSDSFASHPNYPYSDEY
Procedure: The enzyme PGFS is obtained as described in document FR-A-02/05067, at a concentration of 0.5 mg/ml, as a suspension in a suitable medium, and blocked at −80° C. For the purposes of the test, this suspension is thawed and stored in ice.
In parallel, a 100 mM, pH 6.5 Tris buffer containing 20 μm of 9,10-phenanthrenequinone* (P2896, Sigma-Aldrich, L'isle D'Abeau Chesne, BP 701, 38297, Saint Quentin Fallavier) and 100 μM of β-NADPH (N1630, Sigma-Aldrich, L'isle D'Abeau Chesne, BP 701, 38297, Saint Quentin Fallavier) is prepared in a brown flask (protected from light).
*A stock solution with a titre of 1 mM is prepared in absolute ethanol and brought to 40° C.; the flask is placed in an ultrasound tank to facilitate the dissolution of the product.
as §1, with “0.950” for “0.965”, “0.05” for “0.035”, “a reduction” for “an increase”
The test values (containing compound (I)) are compared with the control value (without compound (I)); the results indicated represent the concentration at which compound (I) inhibits 50% of the enzymatic activity of PGFS, noted as IC50fs.

Selectivity (IC50fs/IC50dh ratio) (15-PGDH; 15-PGDH relative to PGF synthase) | IC50 (15-PGDH) [µM] | IC50 (PGF synthase) [µM] | Structure (SMILES)
>1.5 | 50 | > 75 | N#C/C(=C\c1ccccc1)c1nn(-c2ccccc2)c(N)c1C#N [Compound 8]
 | 0.8 | > 50 | N#C/C(=C\c1c(Cl)cccc1Cl)c1nn(-c2ccccc2)c(N)c1C#N [Compound 6]
 | 3 | > 50 | N#C/C(=C\c1ccccc1Cl)c1nn(-c2ccccc2)c(N)c1C#N [Compound 7]
 | 3 | > 50 | N#C/C(=C\c1c(Cl)cccc1Cl)c1nn(CCO)c(N)c1C#N [Compound 1a]
 | 5 |  | COc1ccccc1/C=C(\C#N)c1nn(-c2ccccc2)c(N)c1C#N [Compound 9]
